Assay [1] has as its system MDA-MB-231 breast cancer cell line. Kind of assay: MTT cell viability assay, MDA-MB-231. As to conditions: Homo sapiens; MDA-MB-231 (medium IL-6), 48 h, 0% FBS medium. The format is cell-based, human. On the procedure:
Human breast cancer cell lines MCF7, MDA-MB-231 and SUM159 were maintained in Dulbecco's modified Eagle medium (DMEM). Human pancreatic cancer cell line BxPC-3 was maintained in RPMI 1640 medium. Human pancreatic cancer cell line Capan-1 was maintained in Iscove's Modified Dulbecco's Medium (IMEM). All media were supplemented with 10% FBS and 1% penicillin/streptomycin, and cells were incubated in a humidified 37° C. incubator with 5% CO2. PE/CA-PJ49 cell line was purchased from external sources and maintained according to manufacturer's protocol.
Cell viability was evaluated by using the MTT assay in triple replicates in one experiment and repeated for three times. Cancer cells were seeded in 96-well plates at a density of 3,000 cells per well. The cells were incubated at 37° C. for a period of 24 hours. […] After incubation for 48 or 72 hours, a stock solution of MTT (0.5 mg/ml) was then added to each well containing the treated cells, followed by incubation at 37° C. for 3 h. After removal of medium, the MTT dye was dissolved with spectrophotometric grade DMSO and the absorbance was read at 570 nm. The IC50 value is determined by interpolation based on the absorbance value halfway between positive and negative controls. […]

The target in the next assay is T1, gp130 (Homo sapiens, UniProt P40189).
T1 construct: endogenous in cells; host or cells: SUM159 human breast cancer cells (lysate)
Put plainly: Drug Affinity Responsive Target Stability (DARTS) assay in SUM159 lysates. The format is binding. On the procedure: Human SUM159 breast cancer cells were lysed in cold radioimmunoprecipitation assay (RIPA) lysis buffer containing proteasome inhibitor cocktail and phosphatase inhibitor cocktail. Then lysates were incubated with escalating concentrations (10-1000 μM) of LLM418 or DMSO control at room temperature for 1 h. Proteolysis was followed by adding protease pronase solution at a ratio of 1 mg of pronase to 1000 mg (or 2000 mg) of lysate protein for 30 min, 20 min or 15 min at room temperature. To stop proteolysis, 4×SDS sample loading buffer was added at 1:3 ratio to each sample and boiled at 95° C. for 10 min. The resulted protein samples were separated by 8% SDS-PAGE gel and analyzed by western blotting. The DARTS assay is a method for studying the specific protein-ligand binding interactions. It is based on the principle that the target protein structure might be stabilized and become less susceptible to proteolysis by proteases upon drug binding [Lomenick B, Jung G, Wohlschlegel J, et al. Target identification using drug affinity responsive target stability (DARTS). Curr Protoc Chem Biol 2011, 3, 163-180; Lomenick B, Olsen R, Huang J. Identification of direct protein targets of small molecules. ACS Chem Biol. 2011, 6, 34-46]. It can be used to find the targeting protein of a small molecule by running SDS-gel without purifying any specific protein. […]

T1 sequence (P40189 23-918): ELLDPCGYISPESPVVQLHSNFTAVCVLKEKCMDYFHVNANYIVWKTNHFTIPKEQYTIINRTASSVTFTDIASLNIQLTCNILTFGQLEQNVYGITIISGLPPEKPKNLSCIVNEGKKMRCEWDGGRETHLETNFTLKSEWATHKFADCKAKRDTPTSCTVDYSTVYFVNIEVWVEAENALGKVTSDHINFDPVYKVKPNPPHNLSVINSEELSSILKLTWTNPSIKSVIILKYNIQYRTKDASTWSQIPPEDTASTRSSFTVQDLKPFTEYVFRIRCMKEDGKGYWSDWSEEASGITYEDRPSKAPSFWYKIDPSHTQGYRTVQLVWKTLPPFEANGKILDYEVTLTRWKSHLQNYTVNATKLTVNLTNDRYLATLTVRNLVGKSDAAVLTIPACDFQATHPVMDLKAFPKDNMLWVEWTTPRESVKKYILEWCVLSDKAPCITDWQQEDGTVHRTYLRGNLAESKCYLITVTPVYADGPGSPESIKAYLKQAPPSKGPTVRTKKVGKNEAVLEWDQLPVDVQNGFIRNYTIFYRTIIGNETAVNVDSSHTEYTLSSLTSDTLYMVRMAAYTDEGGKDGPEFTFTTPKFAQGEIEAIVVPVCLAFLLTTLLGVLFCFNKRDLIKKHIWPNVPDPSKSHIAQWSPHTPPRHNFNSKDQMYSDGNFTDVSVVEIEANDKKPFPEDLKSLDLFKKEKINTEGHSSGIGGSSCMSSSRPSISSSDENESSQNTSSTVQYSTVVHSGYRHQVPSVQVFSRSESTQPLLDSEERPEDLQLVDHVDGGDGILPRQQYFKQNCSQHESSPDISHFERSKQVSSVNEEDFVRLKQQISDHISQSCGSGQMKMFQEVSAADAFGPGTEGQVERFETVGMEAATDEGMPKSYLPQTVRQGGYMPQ

In assay [1], `O=C(Nc1cc(F)ccc1-n1cccc1)c1ccc(OCCCN2CCCCC2)cc1` [LLM4, N-(5-fluoro-2-(1H-pyrrol-1-yl)phenyl)-4-(3-(piperidin-1-yl)propoxy)benzamide] returned an IC50 of 970 nM.
Regarding `O=C(Nc1ccccc1-c1ccn[nH]1)c1ccc(OCCN2CCCCC2)cc1` [LLM418, N-(2-(1H-pyrazol-5-yl)phenyl)-4-(2-(piperidin-1-yl)ethoxy)benzamide], the “abundance of gp130 compared with the no drug control” value at gp130 (100 and 1000 μM) is listed as “increased significantly”. The “abundance of the gp130 band (protection from proteolysis)” value on gp130 (SUM159 lysates, 10-1000 μM, pronase:protein=1:2000, 15 min) is “increased with an increasing dose”.
